Test [1] deals with T1, Tyrosine-protein phosphatase non-receptor type 7 (Homo sapiens, UniProt P35236).
T1 sequence (P35236 whole entry): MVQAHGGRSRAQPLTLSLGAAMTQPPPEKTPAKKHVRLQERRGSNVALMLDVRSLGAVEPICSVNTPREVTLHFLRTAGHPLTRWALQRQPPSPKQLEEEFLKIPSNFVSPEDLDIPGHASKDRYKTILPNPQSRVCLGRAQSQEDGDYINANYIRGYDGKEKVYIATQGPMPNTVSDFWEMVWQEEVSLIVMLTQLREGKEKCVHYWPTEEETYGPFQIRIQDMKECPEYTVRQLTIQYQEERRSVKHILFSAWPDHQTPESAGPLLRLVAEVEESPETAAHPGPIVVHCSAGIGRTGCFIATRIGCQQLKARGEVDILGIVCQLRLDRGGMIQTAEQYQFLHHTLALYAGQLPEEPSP
The test can be described thus: HePTP tyrosine phosphatase activity blockers – biochemical, absorbance, leukemia target, primary screen (AID 521). It counts as functional.

Test [2] deals with Sphingosine 1-phosphate receptor 2 (Homo sapiens, UniProt O95136). The test can be described thus: Dose Response Cell Based Assay for Agonists of the S1P2 Receptor. [Related pubchem assays: 729, 736, 843 ]. It counts as functional.
Chain of Sphingosine 1-phosphate receptor 2 (O95136 whole entry): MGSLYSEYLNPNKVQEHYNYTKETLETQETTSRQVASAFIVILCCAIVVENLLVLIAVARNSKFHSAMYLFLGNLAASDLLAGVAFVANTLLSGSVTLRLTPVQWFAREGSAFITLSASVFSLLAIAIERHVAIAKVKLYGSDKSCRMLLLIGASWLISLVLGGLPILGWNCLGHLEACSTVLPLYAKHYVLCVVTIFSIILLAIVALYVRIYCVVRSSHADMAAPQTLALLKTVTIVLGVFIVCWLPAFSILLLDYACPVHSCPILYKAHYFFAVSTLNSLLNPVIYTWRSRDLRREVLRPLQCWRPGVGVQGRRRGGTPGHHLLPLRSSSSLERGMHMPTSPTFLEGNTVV
Test [3] has as its target T2, Rac GTPase-activating protein 1 (Homo sapiens, UniProt Q9H0H5).
T2 sequence (Q9H0H5 whole entry): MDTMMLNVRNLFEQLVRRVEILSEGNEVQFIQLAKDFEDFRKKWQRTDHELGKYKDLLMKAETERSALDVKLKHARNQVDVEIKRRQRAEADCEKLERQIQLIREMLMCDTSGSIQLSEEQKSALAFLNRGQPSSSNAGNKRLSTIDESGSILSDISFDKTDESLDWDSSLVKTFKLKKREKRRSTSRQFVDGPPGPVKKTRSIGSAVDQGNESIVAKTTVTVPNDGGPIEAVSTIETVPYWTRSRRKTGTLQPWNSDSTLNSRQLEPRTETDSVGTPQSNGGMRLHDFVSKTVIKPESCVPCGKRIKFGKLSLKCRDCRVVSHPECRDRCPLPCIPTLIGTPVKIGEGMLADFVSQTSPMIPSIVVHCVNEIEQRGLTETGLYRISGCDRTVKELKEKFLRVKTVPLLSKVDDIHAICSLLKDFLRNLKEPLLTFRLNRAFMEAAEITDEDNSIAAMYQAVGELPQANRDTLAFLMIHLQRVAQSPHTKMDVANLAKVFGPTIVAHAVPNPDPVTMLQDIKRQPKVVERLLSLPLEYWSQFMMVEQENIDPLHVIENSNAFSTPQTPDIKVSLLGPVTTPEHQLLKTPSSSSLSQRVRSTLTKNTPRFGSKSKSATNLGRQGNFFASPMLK
The test can be described thus: blockers of MgcRacGAP-driven Rac1 GTP hydrolysis – biochemical, ADP Hunter fluorescence, primary and confirmatory, confirmation (AID 624330). It counts as functional.

Test [4] in a line: glucagon-like peptide-1 release potency in STC-1, concentration-response, half-maximal inhibitory concentration in the STC-1 line (AID 1117345). It counts as functional, cell-based.
Test [5] in a line: Potency on glucagon-like peptide 1 release, dose-response in NCI-H716 cell line, half maximal inhibitory concentration (AID 1117344). It counts as functional, cell-based.
Test [6] can be described thus: Luminescent dose response cell-based high throughput screening assay for inhibitors of the Janus kinase 2 mutant JAK2V617F. [Related pubchem assays: 1446 (Primary screen.), 1521 (Confirmation assay.), 1486 (Counter screen.)]. It counts as functional.
Test [7] concerns the target T3, Replicative DNA helicase DnaB (Mycobacterium tuberculosis, UniProt P9WMR3).
T3 sequence (P9WMR3 whole entry): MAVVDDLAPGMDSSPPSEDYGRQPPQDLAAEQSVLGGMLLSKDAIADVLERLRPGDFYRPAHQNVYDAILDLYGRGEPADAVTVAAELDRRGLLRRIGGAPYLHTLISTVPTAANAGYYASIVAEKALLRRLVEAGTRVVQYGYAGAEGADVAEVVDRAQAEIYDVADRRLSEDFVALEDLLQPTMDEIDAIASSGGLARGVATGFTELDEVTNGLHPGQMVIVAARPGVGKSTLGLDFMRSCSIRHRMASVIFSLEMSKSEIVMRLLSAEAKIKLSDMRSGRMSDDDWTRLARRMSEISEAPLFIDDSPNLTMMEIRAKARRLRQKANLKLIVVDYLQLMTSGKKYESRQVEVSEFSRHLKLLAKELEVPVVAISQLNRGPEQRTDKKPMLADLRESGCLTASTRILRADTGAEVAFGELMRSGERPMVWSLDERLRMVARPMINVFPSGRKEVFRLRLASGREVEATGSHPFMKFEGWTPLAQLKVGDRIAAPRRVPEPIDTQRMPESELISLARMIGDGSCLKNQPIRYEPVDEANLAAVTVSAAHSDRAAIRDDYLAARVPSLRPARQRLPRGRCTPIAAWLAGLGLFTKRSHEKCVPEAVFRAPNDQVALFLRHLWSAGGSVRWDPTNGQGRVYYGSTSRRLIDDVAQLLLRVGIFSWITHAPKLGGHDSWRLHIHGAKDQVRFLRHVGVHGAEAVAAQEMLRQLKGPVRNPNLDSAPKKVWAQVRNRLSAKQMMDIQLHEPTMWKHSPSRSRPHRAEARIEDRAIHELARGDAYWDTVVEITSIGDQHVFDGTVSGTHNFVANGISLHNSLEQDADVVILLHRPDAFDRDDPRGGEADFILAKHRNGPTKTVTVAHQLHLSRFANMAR
As to the kind of experiment: DnaB intein splicing inhibitors, dose response, biochemical, cell-free fluorescence (AID 449749). It counts as functional.

The target of the next test is T4, Protein RecA (Mycobacterium tuberculosis, UniProt P9WHJ3).
T4 sequence (P9WHJ3 whole entry): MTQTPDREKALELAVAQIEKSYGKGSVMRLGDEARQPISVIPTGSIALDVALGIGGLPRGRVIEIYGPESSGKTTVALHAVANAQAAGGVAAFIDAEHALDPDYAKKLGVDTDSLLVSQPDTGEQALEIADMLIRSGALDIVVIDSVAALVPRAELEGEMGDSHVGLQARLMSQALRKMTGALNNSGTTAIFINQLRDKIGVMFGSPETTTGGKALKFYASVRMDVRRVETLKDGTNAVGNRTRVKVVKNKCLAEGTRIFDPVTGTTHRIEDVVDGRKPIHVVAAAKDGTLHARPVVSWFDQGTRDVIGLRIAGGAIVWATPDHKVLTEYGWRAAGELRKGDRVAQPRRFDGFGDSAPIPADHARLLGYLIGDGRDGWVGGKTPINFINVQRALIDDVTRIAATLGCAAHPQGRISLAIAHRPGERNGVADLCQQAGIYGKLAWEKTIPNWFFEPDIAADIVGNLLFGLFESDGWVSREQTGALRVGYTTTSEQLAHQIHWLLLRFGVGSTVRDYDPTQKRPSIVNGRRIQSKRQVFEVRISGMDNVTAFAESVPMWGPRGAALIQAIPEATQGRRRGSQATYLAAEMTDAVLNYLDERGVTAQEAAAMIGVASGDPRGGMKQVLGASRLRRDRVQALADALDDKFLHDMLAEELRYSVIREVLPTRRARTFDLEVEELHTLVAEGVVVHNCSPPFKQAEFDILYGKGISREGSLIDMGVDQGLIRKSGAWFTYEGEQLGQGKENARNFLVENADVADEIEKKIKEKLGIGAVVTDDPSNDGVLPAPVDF
As to the kind of experiment: Fluorescence Cell-Free Homogeneous Dose Retest to Identify Inhibitors of RecA-Intein Splicing Activity. [Related pubchem assays (depositor defined):AID2097, AID2223, AID489010, AID492950]. It counts as functional.

Test [8] can be described thus: growth inhibition of yeast DHODH-expressing 3D7 parasites – SYBR Green, dry powder samples, dose response (AID 1159570).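 Further: parasite growth measured after 72 hours of compound exposure.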 It counts as functional, cell-based.
Test [9] can be described thus: Dd2 parasite growth inhibition in erythrocytes – SYBR Green, dry powder samples, set 9, dose response (AID 1159568). It counts as functional, cell-based.
Test [10] in a line: P. falciparum Dd2 growth inhibitors, dose response, SYBR Green, cherry-picked samples (AID 1159567). It counts as functional, cell-based.
Test [11] can be described thus: Dd2 malaria parasite growth inhibition potency – SYBR Green, dry powder samples, dose response (AID 1159566).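 Further: potency for growth inhibition with lower SYBR green DNA signal.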 It counts as functional, cell-based.
A short description of test [12]: Plasmodium falciparum Dd2 Sybr green parasite growth Measured in Cell-Based and Microorganism Combination System Using Plate Reader - 2153-01_Inhibitor_Dose_DryPowder_Activity_Set3. It counts as functional.
A short description of test [13]: growth inhibition of PfATP4-mutant resistant parasites – NITD609-resistant line, SYBR Green, dry powder, dose response (AID 1159571).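 Further: parasites synchronized at ring stage by sorbitol before testing.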 It counts as functional, cell-based.
For another test, the target named is Cytochrome P450 2C19 (Homo sapiens, UniProt P33261). As to the kind of experiment: qHTS Assay for Inhibitors and Substrates of Cytochrome P450 2C19. [Related pubchem assays: 410 ]. It counts as ADME. Conditions: read-out: Potency. For orientation: In qHTS, concentration-response curves come from the screen itself.
Chain of Cytochrome P450 2C19 (P33261 whole entry): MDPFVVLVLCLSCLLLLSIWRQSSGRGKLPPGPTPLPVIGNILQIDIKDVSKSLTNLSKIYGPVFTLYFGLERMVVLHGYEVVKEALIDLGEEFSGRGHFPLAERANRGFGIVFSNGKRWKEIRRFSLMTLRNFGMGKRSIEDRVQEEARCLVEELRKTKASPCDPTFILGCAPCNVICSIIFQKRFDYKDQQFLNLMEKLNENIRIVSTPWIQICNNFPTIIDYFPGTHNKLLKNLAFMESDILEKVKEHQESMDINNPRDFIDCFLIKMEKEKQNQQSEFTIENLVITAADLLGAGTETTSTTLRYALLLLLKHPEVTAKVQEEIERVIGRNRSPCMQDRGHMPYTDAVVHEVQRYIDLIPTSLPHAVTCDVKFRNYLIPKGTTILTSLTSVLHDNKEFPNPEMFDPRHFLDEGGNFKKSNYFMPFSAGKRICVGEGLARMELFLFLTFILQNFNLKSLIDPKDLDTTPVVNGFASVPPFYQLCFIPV
For test [14], the target named is Ubiquitin carboxyl-terminal hydrolase BAP1 (Homo sapiens, UniProt Q92560). As to the kind of experiment: inhibition of BAP1 ubiquitin hydrolase activity – biochemical, dose response (AID 714). It counts as functional.
For test [15], the target named is T5, Voltage-gated N-type calcium channel alpha-1B subunit/Amyloid beta A4 precursor protein-binding family A member 1 (Homo sapiens, UniProt Q00975+Q02410). It counts as protein assay.
T5 sequence (Q00975 whole entry): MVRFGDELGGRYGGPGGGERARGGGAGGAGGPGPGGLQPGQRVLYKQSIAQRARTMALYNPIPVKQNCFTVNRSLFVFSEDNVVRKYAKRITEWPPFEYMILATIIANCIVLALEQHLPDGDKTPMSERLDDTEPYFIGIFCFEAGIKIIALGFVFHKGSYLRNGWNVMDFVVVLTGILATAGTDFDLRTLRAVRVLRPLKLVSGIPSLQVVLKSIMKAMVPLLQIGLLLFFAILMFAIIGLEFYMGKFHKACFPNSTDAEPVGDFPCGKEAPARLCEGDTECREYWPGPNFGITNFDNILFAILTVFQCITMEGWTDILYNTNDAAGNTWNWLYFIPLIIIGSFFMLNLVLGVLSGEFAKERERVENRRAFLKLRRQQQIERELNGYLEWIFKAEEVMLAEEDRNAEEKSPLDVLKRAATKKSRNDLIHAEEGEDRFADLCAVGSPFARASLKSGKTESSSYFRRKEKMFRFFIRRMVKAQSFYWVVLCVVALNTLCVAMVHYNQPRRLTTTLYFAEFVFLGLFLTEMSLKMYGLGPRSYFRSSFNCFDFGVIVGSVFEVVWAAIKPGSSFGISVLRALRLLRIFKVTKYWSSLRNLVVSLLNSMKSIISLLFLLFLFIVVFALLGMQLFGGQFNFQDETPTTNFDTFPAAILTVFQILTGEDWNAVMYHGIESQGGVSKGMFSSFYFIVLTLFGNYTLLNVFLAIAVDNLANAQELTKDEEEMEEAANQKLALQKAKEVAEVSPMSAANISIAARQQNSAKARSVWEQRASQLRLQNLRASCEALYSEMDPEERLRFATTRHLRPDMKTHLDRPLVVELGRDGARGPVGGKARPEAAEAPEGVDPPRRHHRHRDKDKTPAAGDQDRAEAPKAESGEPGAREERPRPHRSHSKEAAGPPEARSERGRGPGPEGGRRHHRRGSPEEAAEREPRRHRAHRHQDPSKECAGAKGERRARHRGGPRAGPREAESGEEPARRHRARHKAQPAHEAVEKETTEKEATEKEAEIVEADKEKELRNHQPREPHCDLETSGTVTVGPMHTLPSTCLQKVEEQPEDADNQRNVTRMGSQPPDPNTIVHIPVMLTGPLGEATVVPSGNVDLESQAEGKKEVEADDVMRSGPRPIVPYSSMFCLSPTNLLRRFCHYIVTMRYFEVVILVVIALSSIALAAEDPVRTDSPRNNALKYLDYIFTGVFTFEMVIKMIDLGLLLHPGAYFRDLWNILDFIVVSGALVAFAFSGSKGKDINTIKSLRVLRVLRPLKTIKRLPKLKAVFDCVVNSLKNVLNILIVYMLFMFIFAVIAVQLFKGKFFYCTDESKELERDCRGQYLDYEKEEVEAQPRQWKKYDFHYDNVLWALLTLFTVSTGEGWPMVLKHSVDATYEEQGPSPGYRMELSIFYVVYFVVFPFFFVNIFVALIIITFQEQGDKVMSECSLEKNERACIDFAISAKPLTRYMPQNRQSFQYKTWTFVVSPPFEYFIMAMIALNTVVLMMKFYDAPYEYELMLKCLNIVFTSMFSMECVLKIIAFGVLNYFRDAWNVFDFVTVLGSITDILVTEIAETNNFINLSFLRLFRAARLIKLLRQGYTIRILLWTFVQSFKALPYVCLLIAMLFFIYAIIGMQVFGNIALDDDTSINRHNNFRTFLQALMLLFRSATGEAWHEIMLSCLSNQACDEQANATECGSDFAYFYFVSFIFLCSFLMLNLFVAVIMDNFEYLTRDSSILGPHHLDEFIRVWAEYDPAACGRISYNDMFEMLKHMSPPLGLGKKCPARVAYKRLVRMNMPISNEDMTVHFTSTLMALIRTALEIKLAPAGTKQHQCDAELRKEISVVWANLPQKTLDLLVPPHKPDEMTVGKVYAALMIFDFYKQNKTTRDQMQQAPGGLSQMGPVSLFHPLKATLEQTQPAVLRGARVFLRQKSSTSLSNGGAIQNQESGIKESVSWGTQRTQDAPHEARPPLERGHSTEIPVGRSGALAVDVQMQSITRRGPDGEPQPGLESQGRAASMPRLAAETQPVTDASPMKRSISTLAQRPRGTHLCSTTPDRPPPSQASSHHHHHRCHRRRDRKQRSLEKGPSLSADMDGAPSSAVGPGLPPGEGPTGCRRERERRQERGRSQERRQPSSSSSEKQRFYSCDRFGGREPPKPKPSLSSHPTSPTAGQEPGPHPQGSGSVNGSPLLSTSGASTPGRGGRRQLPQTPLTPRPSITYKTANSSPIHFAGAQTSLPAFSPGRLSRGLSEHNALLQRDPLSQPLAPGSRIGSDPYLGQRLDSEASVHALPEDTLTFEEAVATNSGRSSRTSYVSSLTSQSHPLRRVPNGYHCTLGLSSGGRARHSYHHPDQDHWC
T5 sequence (Q02410 whole entry): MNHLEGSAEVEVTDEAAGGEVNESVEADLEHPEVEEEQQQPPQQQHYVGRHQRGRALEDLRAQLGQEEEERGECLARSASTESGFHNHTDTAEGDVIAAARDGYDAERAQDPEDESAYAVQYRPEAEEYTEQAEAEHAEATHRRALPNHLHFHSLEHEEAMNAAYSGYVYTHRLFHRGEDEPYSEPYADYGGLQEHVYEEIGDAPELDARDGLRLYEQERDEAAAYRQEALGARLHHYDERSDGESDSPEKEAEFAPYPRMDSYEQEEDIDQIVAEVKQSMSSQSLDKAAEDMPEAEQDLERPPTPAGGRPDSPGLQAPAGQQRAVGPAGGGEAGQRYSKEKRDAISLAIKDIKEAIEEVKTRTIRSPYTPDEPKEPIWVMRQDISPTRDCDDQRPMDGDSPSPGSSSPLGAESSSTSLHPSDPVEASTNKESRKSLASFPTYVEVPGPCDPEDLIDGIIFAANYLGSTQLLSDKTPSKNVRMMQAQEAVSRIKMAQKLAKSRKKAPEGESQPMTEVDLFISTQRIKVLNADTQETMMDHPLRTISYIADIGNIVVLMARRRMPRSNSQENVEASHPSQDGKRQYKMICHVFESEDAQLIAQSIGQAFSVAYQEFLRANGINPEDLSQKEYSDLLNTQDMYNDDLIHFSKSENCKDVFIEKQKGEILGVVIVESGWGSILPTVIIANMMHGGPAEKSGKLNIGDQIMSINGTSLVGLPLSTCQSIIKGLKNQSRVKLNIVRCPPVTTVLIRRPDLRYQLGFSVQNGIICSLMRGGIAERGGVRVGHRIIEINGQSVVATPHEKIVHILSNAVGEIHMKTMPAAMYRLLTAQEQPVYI
Test [16] in a line: M. tuberculosis H37Rv growth inhibitors, H37Rv strain (AID 1626). It counts as functional.
The target of test [17] is Luciferin 4-monooxygenase (Photinus pyralis, UniProt P08659). The test can be described thus: inhibition of purified Photinus pyralis luciferase – biochemical, luminescence, dose response (AID 1891).
Chain of Luciferin 4-monooxygenase (P08659 whole entry): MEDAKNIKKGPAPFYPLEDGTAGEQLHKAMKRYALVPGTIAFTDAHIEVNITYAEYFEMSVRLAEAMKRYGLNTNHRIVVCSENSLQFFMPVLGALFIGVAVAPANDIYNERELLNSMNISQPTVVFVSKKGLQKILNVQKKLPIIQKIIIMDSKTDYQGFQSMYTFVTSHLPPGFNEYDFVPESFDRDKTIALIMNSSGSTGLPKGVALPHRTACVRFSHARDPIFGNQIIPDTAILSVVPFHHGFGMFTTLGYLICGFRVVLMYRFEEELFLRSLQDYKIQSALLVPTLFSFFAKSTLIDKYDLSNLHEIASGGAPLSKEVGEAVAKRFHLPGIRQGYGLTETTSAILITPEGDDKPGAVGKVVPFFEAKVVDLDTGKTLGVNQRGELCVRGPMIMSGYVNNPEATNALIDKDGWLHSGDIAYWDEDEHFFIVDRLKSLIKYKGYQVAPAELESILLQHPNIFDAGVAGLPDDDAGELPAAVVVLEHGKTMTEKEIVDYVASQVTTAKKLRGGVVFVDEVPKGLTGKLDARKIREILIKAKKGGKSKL
A short description of test [18]: Luminescence Cell-Based Dose Confirmation HTS to Identify Inhibitors of Platelet Dense Granule Release. [Related pubchem assays: 1663 (Primary HTS), 1678 (Summary of Project)]. It counts as functional.
Test [19] addresses T5, Voltage-gated N-type calcium channel alpha-1B subunit/Amyloid beta A4 precursor protein-binding family A member 1. It counts as protein assay. The source holds these as a separate data set.
Test [20] deals with T6, Low molecular weight phosphotyrosine protein phosphatase (Homo sapiens, UniProt P24666).
T6 sequence (P24666 whole entry): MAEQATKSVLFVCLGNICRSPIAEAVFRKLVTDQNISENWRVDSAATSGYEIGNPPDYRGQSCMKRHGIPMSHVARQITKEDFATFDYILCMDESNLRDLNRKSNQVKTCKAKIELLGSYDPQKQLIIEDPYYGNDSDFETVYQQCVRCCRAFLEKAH
As to the kind of experiment: inhibition of LMPTP-A enzymatic activity – biochemical, OMFP substrate, fluorescence intensity, set 2, dose response (AID 743307). It counts as functional.

The target of test [21] is T6, Low molecular weight phosphotyrosine protein phosphatase. The test can be described thus: inhibition of human LMPTP enzyme activity – biochemical, absorbance, pNPP substrate, LMPTP-A isoform, set 2, orthogonal assay, dose response (AID 743308). It counts as functional.
The target in test [22] is Bifunctional protein GlmU (Mycobacterium tuberculosis, UniProt P9WMN3). The test can be described thus: Inhibitors of Mycobacterial Glucosamine-1-phosphate acetyl transferase (GlmU). Secondary screen. Further details: species or system Mycobacterium tuberculosis H37Rv.
Chain of Bifunctional protein GlmU (P9WMN3 whole entry): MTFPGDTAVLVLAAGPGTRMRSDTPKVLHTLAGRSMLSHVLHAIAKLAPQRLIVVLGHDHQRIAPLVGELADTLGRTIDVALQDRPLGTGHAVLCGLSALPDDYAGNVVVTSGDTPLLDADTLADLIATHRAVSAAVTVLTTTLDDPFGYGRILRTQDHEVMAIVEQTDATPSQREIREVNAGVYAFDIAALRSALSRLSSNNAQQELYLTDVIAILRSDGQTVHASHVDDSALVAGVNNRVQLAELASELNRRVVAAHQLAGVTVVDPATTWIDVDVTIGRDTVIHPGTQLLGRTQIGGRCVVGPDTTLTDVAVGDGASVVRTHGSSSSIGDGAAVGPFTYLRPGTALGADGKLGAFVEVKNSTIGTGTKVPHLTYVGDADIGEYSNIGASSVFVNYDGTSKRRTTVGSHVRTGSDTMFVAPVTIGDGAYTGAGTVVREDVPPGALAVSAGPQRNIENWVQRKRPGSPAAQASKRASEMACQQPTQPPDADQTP

Activity calls are given as the source filed them. Some results are limits rather than exact numbers.

As usually defined, the IC50 is the point on the concentration scale where inhibition reaches its midpoint. In the case of `Nc1nc(Nc2cccc3ccccc23)nc(C2CCCC2=O)n1` (centres undefined), the IC50 in [1] is reported as > 100 µM (not active).

For orientation: EC50 means the concentration at which the effect is half-maximal. In the case of `CCOCCCNc1nc(S)nc2cc(OC)c(OC)cc12`, the EC50 in test [2] is > 50 µM (not active). The IC50 in test [3] was 83 µM (active).

Consider `c1ccc2ccccc2c1`, for which the IC50 in test [4] was > 40 µM (inactive); in test [5] it was 20.8 µM (inactive).

`CC(C)(C)c1cc(NC(=O)CCl)n(-c2ccccc2)n1`: the IC50 in [6] was 1.79 µM (active). In addition, the AC50 in [7] was 65.1 µM (active). Besides, the EC50 on Protein RecA is 13.6 µM (active).

Take `COc1ccccc1NC(=O)Nc1ccc2c(c1)OC[C@@H](C)N(Cc1ccccc1Cl)C[C@@H](C)[C@H](OC)CN(C)C2=O`: the AC50 in test [8] is 0.874 µM (active); in test [9] it was 0.0305 µM (active); in test [10], < 0.3 µM (active); in [11] it was 0.016 µM (active); in test [12], 0.181 µM (active); in test [13], 0.22 µM (active).

For `COc1ccc(CNc2ncnc3ccc(-c4ccccc4OC)cc23)c(OC)c1`, on Cytochrome P450 2C19, the AC50 was 3.98 µM (inconclusive).

`COc1ccc(C2CC(=O)N3CN(c4ccc(C)c(Cl)c4)CSC3=C2C#N)cc1OC` (centres undefined): the IC50 is > 50 µM (not active) in test [14], > 56.8 µM (not active) in test [15], > 100 µM (active) in test [16] and > 50 µM (inactive) in [19]. Moreover, the EC50 in test [17] and in test [18] was > 112 µM (not active) each time.

With `Cc1ccc(-c2cc(NCCCN3CCCCC3)c3ccccc3n2)cc1`, the IC50 in test [20] was 1.34 µM (active); in test [21], 2.99 µM (active).

As for `O=S1(=O)c2ccccc2N=NN1Cc1ccc(Cl)c(Cl)c1`, in test [22], the IC50 is 38.7 µM (active).

These data come from ChEMBL document CHEMBL1201862, “PubChem BioAssay data set” (2004).
